Assay results reported in ChEMBL document CHEMBL1201862, “PubChem BioAssay data set” (2004).
Active and inactive are the calls of the source.

Key:
[1] = biological target: Neurotensin receptor type 1 (Homo sapiens, UniProt P30989); type: functional;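 also: Image-based confirmatory dose-response assay measuring agonist activity at NTR1; NTR1-expressing U2OS osteosarcoma cells imaged for beta-arrestin GFP spot formation; agonist potency where compounds increase beta-arrestin recruitment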
[2] = biological target: T1, Heat shock factor protein 1 (Mus musculus, UniProt P38532); test: HSF1 potentiators in luciferase reporter cells, confirmation, cell-based, NIH3T3, luminescence, dose retest (AID 435004); type: functional;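 also: stress induced by proteasome inhibitor MG132 added 30 min after compound; luciferase reporter driven by HSF1 response element in NIH3T3 cells; actives raise luminescence as potentiators of the MG132 stress response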
T1 sequence (P38532 whole entry): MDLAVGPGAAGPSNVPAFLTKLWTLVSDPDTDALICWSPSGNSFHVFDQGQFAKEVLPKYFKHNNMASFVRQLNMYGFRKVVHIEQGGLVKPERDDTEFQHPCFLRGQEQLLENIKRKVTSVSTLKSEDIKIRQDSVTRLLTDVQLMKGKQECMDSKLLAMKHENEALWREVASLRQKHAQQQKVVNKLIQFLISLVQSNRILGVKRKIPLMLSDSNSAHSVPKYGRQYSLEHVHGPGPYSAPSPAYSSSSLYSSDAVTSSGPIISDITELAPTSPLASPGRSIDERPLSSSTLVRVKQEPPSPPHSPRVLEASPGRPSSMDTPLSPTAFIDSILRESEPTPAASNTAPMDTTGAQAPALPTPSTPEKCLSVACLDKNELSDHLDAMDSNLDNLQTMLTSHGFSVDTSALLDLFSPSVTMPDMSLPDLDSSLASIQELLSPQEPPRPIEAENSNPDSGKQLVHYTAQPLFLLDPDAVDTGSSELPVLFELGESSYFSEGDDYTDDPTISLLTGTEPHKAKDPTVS

[3] = biological target: T2, Neuropeptides B/W receptor type 1 (Homo sapiens, UniProt P48145); test: Fluorescence-based dose response cell-based high throughput screening assay to identify antagonists of the G-protein coupled receptor 7 (GPR7). [Related pubchem assays: 1952 (Screening assay (GPR7 antagonists).), 1880 (Summary AID.)]; type: functional
T2 sequence (P48145 whole entry): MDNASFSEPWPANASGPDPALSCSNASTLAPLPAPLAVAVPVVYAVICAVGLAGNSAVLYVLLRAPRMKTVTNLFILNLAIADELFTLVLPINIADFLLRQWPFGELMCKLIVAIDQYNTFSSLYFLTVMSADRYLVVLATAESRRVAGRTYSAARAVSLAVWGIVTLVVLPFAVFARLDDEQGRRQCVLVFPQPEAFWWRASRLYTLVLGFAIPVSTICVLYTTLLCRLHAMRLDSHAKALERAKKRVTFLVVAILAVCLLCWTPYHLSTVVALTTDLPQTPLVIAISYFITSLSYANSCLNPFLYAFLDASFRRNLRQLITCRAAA

[4] = biological target: T3, Melanin-concentrating hormone receptor 1 (Homo sapiens, UniProt Q99705); test: Fluorescence-based counterscreen for antagonists of the G-protein coupled receptor 7 (GPR7): cell-based high throughput dose response assay to identify antagonists of the melanin-concentrating hormone receptor 1 (MCHR1).; type: functional
[5] = biological target: Aspartyl aminopeptidase (Plasmodium falciparum 3D7, UniProt Q8I2J3)
[6] = biological target: Procathepsin L (Homo sapiens, UniProt P07711)
[7] = biological target: Intestinal-type alkaline phosphatase (Homo sapiens, UniProt P09923); test: Dose Response confirmation of uHTS hits from a small molecule inhibitors of human intestinal alkaline phosphatase via a luminescent assay. [Related pubchem assays (depositor defined):AID2544, AID2574]; type: functional
[8] = biological target: T4, Eukaryotic translation initiation factor 4H (Homo sapiens, UniProt Q15056); test: eIF4H inhibition in translation initiation, SAR follow-up (AID 435011); type: functional
[9] = biological target: T5, Polyadenylate-binding protein 1 (Homo sapiens, UniProt P11940); test: PABP inhibition in translation initiation, SAR follow-up (AID 435018); type: functional
[10] = luciferase reporter signal reduction – luminescence, H4-C neuroglioblastoma cells, dose response (AID 2458); type: functional, cell-based;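 also: H4 neuroglioblastoma cells stably carrying a luciferase reporter gene fusion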
[11] = cells; type: functional, cell-based
[12] = biological target: T6, Microphthalmia-associated transcription factor (Homo sapiens, UniProt O75030); test: TRPM1 promoter luciferase signal decrease, dose response, MITF inhibitor project, cell-based, SK-MEL-5, cherry-picked, set 3 (AID 493073); type: functional
T6 sequence (O75030 whole entry): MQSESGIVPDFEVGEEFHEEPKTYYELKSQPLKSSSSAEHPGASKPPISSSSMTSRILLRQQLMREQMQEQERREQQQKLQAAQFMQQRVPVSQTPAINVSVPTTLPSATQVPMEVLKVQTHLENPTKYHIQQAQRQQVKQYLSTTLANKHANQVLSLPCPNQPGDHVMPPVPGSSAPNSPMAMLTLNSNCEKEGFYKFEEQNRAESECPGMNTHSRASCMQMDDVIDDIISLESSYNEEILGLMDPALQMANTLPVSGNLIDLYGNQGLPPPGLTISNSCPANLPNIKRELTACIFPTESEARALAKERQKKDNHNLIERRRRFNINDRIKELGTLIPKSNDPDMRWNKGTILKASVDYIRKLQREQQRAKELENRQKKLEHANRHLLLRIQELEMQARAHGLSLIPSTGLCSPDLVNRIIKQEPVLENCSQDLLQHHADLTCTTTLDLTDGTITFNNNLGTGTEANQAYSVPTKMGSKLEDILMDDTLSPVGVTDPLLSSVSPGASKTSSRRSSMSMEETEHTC

[13] = inhibitors of firefly luciferase expression or activity, dose response, H4 neuroglioma cells, luminescence (AID 1990); type: functional, cell-based
[14] = inhibitors of SNCA 5'UTR-driven translation, confirmation, luminescence, H4 neuroglioblastoma cells, dose confirmation (AID 2454); type: functional, cell-based;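 also: H4 neuroglioblastoma cells carrying an alpha-synuclein 5'UTR luciferase reporter; potency for inhibition of the luciferase signal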
[15] = Luminescence Cell-Based Dose Response HTS to Identify Inhibitors of 5'UTR Stem-Loop Driven Prion Protein mRNA Translation in H4 Neuroglioblastoma Cells. [Related pubchem assays: 1827 (Project Summary), 1813 (Primary HTS)]; type: functional
[16] = biological target: T2, Neuropeptides B/W receptor type 1; test: GPR7 antagonist potency, late-stage follow-up, cell-based, fluorescence, dose response (AID 463251); type: functional
[17] = biological target: T3, Melanin-concentrating hormone receptor 1; test: Late-stage fluorescence-based counterscreen for antagonists of the G-protein coupled receptor 7 (GPR7): cell-based dose response assay to identify antagonists of the melanin-concentrating hormone receptor 1 (MCHR1). [Related pubchem assays (depositor defined):AID1861, AID1880, AID1952, AID2148, AID2251, AID2257, AID485339]; type: functional
[18] = biological target: T4, Eukaryotic translation initiation factor 4H; test: human eIF4H binding inhibitors, primary screen, translation initiation inhibitor project, biochemical, uHTS, fluorescence polarization (AID 2012)
[19] = biological target: T5, Polyadenylate-binding protein 1; test: PABP poly(A) RNA binding inhibitors, primary screen, biochemical, fluorescence polarization, uHTS (AID 2014)
[20] = biological target: T7, SUMO-activating enzyme (Homo sapiens, UniProt Q9UBT2); test: inhibitors of in vitro SUMOylation cascade, primary screen, biochemical, HTRF, uHTS (AID 2006); type: protein-complex assay
[21] = biological target: T7, SUMO-activating enzyme; test: SUMOylation inhibitor hit validation, confirmation, SUMOylation inhibitor project, biochemical, AlphaScreen (AID 2018); type: functional
[22] = biological target: Induced myeloid leukemia cell differentiation protein Mcl-1 (Homo sapiens, UniProt Q07820); type: functional
Chain of Induced myeloid leukemia cell differentiation protein Mcl-1 (Q07820 whole entry): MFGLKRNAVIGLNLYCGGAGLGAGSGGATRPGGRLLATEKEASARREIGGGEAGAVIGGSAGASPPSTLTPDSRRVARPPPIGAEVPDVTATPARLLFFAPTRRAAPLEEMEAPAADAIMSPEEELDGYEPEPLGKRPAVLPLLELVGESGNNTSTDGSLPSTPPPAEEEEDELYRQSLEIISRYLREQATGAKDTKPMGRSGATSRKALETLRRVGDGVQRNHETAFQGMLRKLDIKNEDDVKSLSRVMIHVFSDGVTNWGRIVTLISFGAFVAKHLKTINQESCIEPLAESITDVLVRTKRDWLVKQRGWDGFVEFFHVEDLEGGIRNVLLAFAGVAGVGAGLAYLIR

T5 sequence (P11940 whole entry, the tested form may be a part): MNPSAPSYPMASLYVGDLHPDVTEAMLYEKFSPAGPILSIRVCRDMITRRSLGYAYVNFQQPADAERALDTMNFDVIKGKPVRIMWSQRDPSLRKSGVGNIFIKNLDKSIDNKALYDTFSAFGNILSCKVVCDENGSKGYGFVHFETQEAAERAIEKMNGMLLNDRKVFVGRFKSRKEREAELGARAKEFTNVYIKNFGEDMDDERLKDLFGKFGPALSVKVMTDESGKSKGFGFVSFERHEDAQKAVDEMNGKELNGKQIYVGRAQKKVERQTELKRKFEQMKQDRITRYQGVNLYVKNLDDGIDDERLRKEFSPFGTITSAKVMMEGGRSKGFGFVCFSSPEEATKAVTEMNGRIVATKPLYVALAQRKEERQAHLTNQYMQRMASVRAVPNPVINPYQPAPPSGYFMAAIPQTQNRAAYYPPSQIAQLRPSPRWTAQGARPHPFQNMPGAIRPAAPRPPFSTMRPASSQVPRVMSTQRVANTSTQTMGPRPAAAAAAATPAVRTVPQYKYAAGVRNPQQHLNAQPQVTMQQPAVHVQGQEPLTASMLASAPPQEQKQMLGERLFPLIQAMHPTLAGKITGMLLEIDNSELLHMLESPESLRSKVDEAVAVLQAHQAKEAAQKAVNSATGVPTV
T7 sequence (Q9UBE0 whole entry): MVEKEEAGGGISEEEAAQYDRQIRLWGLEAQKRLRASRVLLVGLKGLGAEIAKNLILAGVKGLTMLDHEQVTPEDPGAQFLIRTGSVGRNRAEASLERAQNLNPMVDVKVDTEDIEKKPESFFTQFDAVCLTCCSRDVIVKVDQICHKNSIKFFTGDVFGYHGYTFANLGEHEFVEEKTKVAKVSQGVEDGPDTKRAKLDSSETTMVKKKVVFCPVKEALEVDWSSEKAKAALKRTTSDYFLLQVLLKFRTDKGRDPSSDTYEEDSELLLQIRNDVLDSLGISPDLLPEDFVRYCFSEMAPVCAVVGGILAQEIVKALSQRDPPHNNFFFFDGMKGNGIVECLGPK
T7 sequence (Q9UBT2 whole entry): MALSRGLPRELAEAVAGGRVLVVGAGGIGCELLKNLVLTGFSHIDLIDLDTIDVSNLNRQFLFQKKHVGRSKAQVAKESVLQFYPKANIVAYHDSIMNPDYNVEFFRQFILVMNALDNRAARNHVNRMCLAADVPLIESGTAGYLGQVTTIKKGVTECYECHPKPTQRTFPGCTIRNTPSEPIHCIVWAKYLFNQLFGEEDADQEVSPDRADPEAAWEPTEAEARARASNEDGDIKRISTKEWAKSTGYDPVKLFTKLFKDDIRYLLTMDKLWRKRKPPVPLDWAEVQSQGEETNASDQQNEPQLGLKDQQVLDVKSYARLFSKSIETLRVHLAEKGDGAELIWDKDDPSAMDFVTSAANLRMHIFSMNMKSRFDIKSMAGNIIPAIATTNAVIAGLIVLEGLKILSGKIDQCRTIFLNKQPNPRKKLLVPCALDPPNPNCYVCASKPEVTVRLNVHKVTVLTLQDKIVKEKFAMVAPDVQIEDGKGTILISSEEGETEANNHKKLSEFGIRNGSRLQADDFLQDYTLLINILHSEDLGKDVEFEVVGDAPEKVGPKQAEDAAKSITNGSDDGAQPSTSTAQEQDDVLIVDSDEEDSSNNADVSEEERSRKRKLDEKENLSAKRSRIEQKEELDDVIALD
T3 sequence (Q99705 whole entry): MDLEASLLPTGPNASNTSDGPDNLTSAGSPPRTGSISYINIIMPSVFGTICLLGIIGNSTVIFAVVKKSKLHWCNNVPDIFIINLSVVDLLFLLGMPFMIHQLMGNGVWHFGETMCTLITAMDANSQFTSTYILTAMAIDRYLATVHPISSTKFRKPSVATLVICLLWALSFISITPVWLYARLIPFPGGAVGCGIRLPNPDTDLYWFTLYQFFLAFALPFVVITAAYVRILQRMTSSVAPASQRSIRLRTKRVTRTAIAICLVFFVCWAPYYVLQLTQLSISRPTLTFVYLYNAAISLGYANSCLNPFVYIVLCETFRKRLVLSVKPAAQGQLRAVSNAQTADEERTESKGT
Chain of Intestinal-type alkaline phosphatase (P09923 whole entry): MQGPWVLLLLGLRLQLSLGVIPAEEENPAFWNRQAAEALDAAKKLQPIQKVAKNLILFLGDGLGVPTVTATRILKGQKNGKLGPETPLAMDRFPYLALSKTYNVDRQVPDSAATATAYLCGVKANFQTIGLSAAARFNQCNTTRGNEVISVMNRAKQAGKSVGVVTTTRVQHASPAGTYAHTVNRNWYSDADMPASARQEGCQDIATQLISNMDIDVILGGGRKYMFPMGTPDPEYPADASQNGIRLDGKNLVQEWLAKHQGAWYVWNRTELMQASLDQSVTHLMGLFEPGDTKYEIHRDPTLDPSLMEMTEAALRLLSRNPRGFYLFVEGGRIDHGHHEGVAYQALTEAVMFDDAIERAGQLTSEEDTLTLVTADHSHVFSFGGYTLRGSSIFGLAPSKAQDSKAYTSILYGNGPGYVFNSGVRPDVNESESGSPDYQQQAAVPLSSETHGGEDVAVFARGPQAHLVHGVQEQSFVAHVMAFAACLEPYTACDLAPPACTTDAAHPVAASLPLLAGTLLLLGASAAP
Chain of Neurotensin receptor type 1 (P30989 whole entry): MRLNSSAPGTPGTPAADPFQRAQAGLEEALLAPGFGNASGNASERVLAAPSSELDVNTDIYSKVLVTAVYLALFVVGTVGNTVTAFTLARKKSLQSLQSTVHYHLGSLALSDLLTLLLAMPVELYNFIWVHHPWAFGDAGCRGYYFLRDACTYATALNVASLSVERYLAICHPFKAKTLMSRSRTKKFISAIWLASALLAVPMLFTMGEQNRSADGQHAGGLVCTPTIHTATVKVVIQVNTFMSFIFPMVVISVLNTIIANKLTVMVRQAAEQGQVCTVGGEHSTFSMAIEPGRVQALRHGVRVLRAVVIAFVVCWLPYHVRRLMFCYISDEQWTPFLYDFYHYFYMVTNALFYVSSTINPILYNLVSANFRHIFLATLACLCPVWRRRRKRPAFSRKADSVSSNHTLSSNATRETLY
Chain of Aspartyl aminopeptidase (Q8I2J3 whole entry): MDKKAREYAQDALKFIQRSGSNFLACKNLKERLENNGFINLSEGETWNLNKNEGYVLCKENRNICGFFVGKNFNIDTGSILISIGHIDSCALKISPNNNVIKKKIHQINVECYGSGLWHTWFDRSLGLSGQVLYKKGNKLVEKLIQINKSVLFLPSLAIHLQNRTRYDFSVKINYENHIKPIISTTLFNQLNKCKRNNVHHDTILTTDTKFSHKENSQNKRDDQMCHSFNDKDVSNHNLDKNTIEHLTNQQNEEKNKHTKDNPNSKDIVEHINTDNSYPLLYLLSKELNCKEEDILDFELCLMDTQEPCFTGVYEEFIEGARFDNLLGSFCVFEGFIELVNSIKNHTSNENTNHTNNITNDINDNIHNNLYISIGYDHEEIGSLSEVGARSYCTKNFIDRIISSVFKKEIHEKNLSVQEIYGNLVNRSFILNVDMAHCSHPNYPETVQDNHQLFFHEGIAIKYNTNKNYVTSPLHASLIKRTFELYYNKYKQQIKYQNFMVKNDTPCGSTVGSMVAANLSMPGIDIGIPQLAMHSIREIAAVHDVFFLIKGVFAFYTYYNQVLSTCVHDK
Chain of Procathepsin L (P07711 whole entry): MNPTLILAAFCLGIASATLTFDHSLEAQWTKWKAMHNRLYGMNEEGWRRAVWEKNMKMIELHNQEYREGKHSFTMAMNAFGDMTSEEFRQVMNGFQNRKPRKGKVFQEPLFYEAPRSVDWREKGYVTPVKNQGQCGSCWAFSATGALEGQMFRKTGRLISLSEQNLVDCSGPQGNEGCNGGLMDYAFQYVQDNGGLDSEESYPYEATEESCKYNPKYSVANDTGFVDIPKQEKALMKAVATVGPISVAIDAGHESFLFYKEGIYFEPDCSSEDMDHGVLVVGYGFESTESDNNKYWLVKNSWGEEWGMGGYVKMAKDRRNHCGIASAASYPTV

Compound: CCOc1cc(/C=C2/C(=O)ON=C2C)ccc1OCc1ccc(F)cc1
- EC50 [1]: 16.2 µM (active)
- EC50 [2]: 8.12 µM (active)

Compound: Cc1ccccc1N(CC(=O)NC1CCCCC1)C(=O)CCCC(=O)Nc1ccccn1
- IC50 [3]: > 43.8 µM (not active)
- IC50 [4]: > 43.8 µM (not active)

Compound: CCc1ccccc1N=C(S)Nn1cnnc1
- IC50 [5]: 3.03 µM (active)
- IC50 [6]: > 59.6 µM (not active)

Compound: CC(C)(C)NN/C=C1\C(=O)N(c2ccc(Cl)cn2)C(=O)c2ccccc21
- IC50 [7]: > 100 µM (inactive)

Compound: CCOC(=O)Cc1c(Sc2ccccc2)c2cc(C)ccc2n1C
- IC50 [8]: > 100 µM (inactive)
- IC50 [9]: > 100 µM (inactive)

Compound: Cc1ccc(C(=O)c2cccc(N)c2)cc1C
- EC50 [10]: 1.11 µM (active)
- EC50 [11]: 2.86 µM (active)
- AC50 [12]: 3.62 µM (active)
- EC50 [13]: < 0.1 µM (active)
- EC50 [14]: 1.46 µM (active)
- EC50 [15]: < 0.1 µM (active)

Compound: O=C(C1CCCCN1Cc1ccc(Cl)cc1)N1CCN(c2ccc([N+](=O)[O-])cc2)CC1 (configuration not stated)
- IC50 [16]: 1.6 µM (active)
- IC50 [17]: 1.8 µM (active)

Compound: Cc1ccc(OCC(=O)N/N=C/C=C/c2ccco2)cc1
- IC50 [18]: 15.6 µM (active)
- IC50 [19]: 45.5 µM (active)

Compound: NC(=S)n1nc(-c2ccc([N+](=O)[O-])cc2)c(/N=N/c2cccc(Cl)c2)c1O
- IC50 [20]: 51.5 µM (active)
- IC50 [21]: 3.29 µM (active)
- IC50 [22]: 1.44 µM (active)
